Laboratory results as given in US10583137B2, “Triazole DAGLα inhibitors” (THE SCRIPPS RESEARCH INSTITUTE, priority 2015, dated 2020).

How the values were obtained:
[1] = biological target: DAGLβ (hDAGLβ-FLAG) (Homo sapiens (Human), UniProt Q8NCG7); experiment: competitive ABPP, membrane proteome of transfected HEK293T cells; assay type: biochemical; settings: for inhibition at 0.0032 µM: read-out: DAGLβ % inh. 3.2 nM; for IC50: read-out: DAGLβ IC50
Method in brief: (§1)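 HEK293T membrane proteome (1 mg/ml) expressing FLAG-tagged human DAGLα or DAGLβ, treated 30 min at room temperature with compound, then 30 min with HT-01 or FP-Rh probe (1 μM). Bands separated by SDS-PAGE were normalized to DMSO for IC50 by variable-slope fit.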

[2] = biological target: DAGLα (hDAGLα-FLAG) (Homo sapiens (Human), UniProt Q9Y4D2); experiment: as above; assay type: biochemical; settings: for inhibition at 0.0032 µM: 3.2 nM, read-out: DAGLα % inh. 3.2 nM; for IC50: read-out: DAGLα IC50
Method in brief: as §1

DAGLβ (hDAGLβ-FLAG), sequence (Q8NCG7 whole entry): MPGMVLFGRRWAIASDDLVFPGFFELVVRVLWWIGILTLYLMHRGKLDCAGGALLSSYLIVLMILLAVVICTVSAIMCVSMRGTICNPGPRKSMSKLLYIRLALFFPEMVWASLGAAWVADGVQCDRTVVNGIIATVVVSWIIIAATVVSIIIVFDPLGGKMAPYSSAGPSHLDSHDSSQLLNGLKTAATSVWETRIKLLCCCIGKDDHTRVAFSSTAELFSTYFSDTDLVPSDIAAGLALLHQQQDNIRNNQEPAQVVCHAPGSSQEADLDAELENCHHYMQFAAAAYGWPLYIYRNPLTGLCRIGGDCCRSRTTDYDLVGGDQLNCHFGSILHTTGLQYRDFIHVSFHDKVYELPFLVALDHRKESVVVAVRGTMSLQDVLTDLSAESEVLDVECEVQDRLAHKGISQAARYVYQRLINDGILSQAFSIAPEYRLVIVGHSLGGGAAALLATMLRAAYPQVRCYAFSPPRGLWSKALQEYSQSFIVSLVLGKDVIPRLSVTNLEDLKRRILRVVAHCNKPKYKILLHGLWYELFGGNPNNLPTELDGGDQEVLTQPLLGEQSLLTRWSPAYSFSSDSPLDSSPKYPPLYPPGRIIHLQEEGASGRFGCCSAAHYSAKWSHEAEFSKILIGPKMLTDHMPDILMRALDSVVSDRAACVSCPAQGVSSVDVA
DAGLα (hDAGLα-FLAG), sequence (Q9Y4D2 whole entry): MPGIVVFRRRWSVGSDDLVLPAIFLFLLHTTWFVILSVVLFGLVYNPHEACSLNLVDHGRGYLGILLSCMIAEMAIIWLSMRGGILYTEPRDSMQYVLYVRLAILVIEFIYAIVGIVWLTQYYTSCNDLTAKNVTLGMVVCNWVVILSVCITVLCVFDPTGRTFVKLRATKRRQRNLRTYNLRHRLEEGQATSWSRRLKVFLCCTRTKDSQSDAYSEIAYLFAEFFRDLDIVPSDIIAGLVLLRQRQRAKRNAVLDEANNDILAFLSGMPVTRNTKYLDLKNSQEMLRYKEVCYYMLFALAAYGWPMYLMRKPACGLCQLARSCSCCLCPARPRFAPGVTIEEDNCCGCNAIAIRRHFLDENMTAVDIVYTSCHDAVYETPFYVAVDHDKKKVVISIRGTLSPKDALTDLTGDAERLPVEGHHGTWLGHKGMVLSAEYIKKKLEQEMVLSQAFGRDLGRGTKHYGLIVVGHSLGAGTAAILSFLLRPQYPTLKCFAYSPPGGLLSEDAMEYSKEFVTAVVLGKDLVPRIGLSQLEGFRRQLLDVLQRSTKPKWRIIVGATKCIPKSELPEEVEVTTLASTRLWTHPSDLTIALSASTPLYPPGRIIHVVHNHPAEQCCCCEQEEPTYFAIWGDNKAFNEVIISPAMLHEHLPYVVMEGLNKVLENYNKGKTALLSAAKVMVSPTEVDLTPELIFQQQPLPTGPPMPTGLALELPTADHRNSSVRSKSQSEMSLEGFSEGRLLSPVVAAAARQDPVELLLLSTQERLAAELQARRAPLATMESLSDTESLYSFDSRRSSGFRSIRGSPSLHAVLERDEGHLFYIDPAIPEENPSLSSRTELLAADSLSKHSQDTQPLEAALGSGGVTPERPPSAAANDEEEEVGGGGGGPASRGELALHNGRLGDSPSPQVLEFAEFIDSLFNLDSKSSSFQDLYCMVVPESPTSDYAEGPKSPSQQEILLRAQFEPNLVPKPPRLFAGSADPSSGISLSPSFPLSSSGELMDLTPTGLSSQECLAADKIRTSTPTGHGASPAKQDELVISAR

| inhibition at 0.0032 µM [1] | inhibition at 0.0032 µM [2] | IC50 [1] | IC50 [2] | Compound | also measured |
| --- | --- | --- | --- | --- | --- |
| 0 to 25% | 0 to 25% |  |  | O=C(N1CCC=C[C@H]1COCc1ccccc1)n1ncc(-c2ccc(OC(F)(F)F)cc2)n1 [Compound 109, (S)-(6-((benzyloxy)methyl)-3,6-dihydropyridin-1(2H)-yl)(4-(4-(trifluoromethoxy)phenyl)-2H-1,2,3-triazol-2-yl)methanone] |  |
| 0 to 25% | 0 to 25% |  |  | CO[C@@H]1CC[C@H](Cc2ccccc2)N(C(=O)n2ncc(-c3ccc(OC(F)(F)F)cc3)n2)C1 [Compound 117, ((2R,5R)-2-benzyl-5-methoxypiperidin-1-yl)(4-(4-(trifluoromethoxy)phenyl)-2H-1,2,3-triazol-1-yl)methanone] |  |
| 0 to 25% | 0 to 25% |  |  | O=C(N1C[C@H](O)C=C[C@@H]1Cc1ccccc1)n1cc(-c2ccc(OC(F)(F)F)cc2)nn1 [Compound 112, ((3R,6S)-6-benzyl-3-hydroxy-3,6-dihydropyridin-1(2H)-yl)(4-(4-(trifluoromethoxy)phenyl)-1H-1,2,3-triazol-1-yl)methanone] |  |
|  |  | ≤ 0.4 µM | ≤ 0.4 µM | O=C(N(CCc1ccccc1)CC1CC1)n1cc(-c2ccc(OC(F)(F)F)cc2)nn1 [Compound 130, N-(cyclopropylmethyl)-N-phenethyl-4-(4-(trifluoromethoxy)phenyl)-1H-1,2,3-triazole-1-carboxamide] |  |
| 0 to 25% | 0 to 25% |  |  | O=C(N1C[C@H](OCC2CC2)CC[C@@H]1Cc1ccccc1)n1ncc(-c2ccc(OC(F)(F)F)cc2)n1 [Compound 121] |  |

Second part, the compound before the results:

| Compound | inhibition at 0.0032 µM [1] | inhibition at 0.0032 µM [2] | IC50 [1] | IC50 [2] | also measured |
| --- | --- | --- | --- | --- | --- |
| O=C(N1CCCCC1Cc1ccccc1)n1cc(-c2ccc(CN3CCCC3)cc2)nn1 (stereo not drawn) [Compound 93, (2-benzylpiperidin-1-yl)(4-(4-(pyrrolidin-1-ylmethyl)phenyl)-1H-1,2,3-triazol-1-yl)methanone] |  |  | > 10 µM | 2 to 10 µM |  |
| O=C(N1CCCCC1Cc1ccccc1)n1cc(-c2ccc(-c3ccncc3)cc2)nn1 (stereo not drawn) [Compound 59, (2-benzylpiperidin-1-yl)(4-(4-(pyridin-4-yl)phenyl)-1H-1,2,3-triazol-1-yl)methanone] |  |  | 2 to 10 µM | 0.4 to 2 µM |  |
| O=C(N1CCC=C[C@@H]1COCc1ccccc1)n1cc(-c2ccc(OC(F)(F)F)cc2)nn1 [Compound 106, (R)-(6-((benzyloxy)methyl)-3,6-dihydropyridin-1(2H)-yl)(4-(4-(trifluoromethoxy)phenyl)-1H-1,2,3-triazol-1-yl)methanone] | 0 to 25% | 0 to 25% |  |  |  |
| O=C(N1C[C@@H](OCC2CC2)CC[C@@H]1Cc1ccccc1)n1cc(-c2ccc(OC(F)(F)F)cc2)nn1 [Compound 44, ((2R,5S)-2-benzyl-5-(cyclopropylmethoxy)piperidin-1-yl)(4-(4-(trifluoromethoxy)phenyl)-1H-1,2,3-triazol-1-yl)methanone] | 0 to 25% | 25 to 50% |  |  |  |
| COC(=O)N1CCN(C(=O)n2ncc(-c3ccc(OC(F)(F)F)cc3)n2)C(Cc2ccccc2)C1 (stereo not drawn) [Compound 98, methyl 3-benzyl-4-(4-(4-(trifluoromethoxy)phenyl)-2H-1,2,3-triazole-2-carbonyl)piperazine-1-carboxylate] |  |  |  |  | inhibition at 0.4 µM ([1]; read-out: DAGLβ % inh. 0.4 μM): 0 to 25%; inhibition at 0.4 µM ([2]; 0.4 μM, read-out: DAGLα % inh. 0.4 μM): 0 to 25% |
| COc1cnnc(OC)c1-c1ccc(-c2cn(C(=O)N3CCCCC3Cc3ccccc3)nn2)cc1 (stereo not drawn) [Compound 83, (2-benzylpiperidin-1-yl)(4-(4-(3,5-dimethoxypyridazin-4-yl)phenyl)-1H-1,2,3-triazol-1-yl)methanone] |  |  | 2 to 10 µM | ≤ 0.4 µM |  |
| COc1cc(C(=O)N2CCCC2)cc(OC)c1-c1ccc(-c2cn(C(=O)N3CCCCC3Cc3ccccc3)nn2)cc1 (stereo not drawn) [Compound 81, (2-benzylpiperidin-1-yl)(4-(2′,6′-dimethoxy-4′-(pyrrolidine-1-carbonyl)-[1,1′-biphenyl]-4-yl)-1H-1,2,3-triazol-1-yl)methanone] |  |  | > 10 µM | 0.4 to 2 µM |  |
